Reference: patent US20240131356A1, “COMBINATION OF INTRACELLULAR AND EXTRACELLULAR PHOTOSENSITIZERS FOR TREATMENT OF BACTERIAL INFECTION” (priority 2021, published 2024)
Where two headings read alike, the source gives them in different places.

Tested on: hrtAB promoter (HssRS activation; CgoX activation)
Assay: XylE colorimetric reporter assay (phrt.xylE), activation of HssRS / hrtAB expression
Format: cell-based, Staphylococcus aureus strain Newman
Conditions: for Specifc Activity @ 30 μM: 30 μM compound, XylE activity normalized to protein; for Specifc Activity @ 30 μM / Specifc Activity (nMol/min*mg), data collected at 10 uM: 6 h subculture; for XylE activity in comparison to '8882 at 10 μM: six-hour exposure (FIG. 2A); for XylE activity in comparison to '8882 at 30 μM: six-hour exposure (FIG. 2B); for EC50: Staphylococcus aureus, NEWMAN; for Specifc Activity (nMol/min*mg), data collected at 10 uM: footnote a: data collected at 10 uM; for XylE activity (ability to activate HssRS) in comparison to '8882: dose not stated
Procedure: To maximize the production of coproporphyrin III and thereby increase blue-light mediated killing of S. aureus, synthesized analogs of VU0038882 were tested. To determine the relative efficacy of each analog, a Newman strain of S. aureus, transformed with the phrt.xylE (11) reporter vector was used. This reporter allows for colorimetric assessment of intracellular heme production. To perform the assay, each individual analog was added to 3 mL of TSB+10 μg/mL chloramphenicol to reach a concentration of 30 μM, and then 700 μL of this newly made 30 μM solution was added to 1.3 mL of remaining TSB+10 μg/mL chloramphenicol media to create the 10 μM concentration. Either 10 μM or 30 μM concentrations of compounds in medium were then aliquoted into three 0.5 mL replicate tubes. Three separate 16- to 18-hour overnight subcultures from isolated colonies were back-diluted 1:100 into the tubes creating three biological replicates and were subcultured for 6 hours at 37° C. and 180 rpm. After incubation, the cells were pelleted at 16,400 g for 5 minutes and the supernatant aspirated before washing with 0.5 mL of 20 mM potassium phosphate wash buffer. After pelleting the cells again at 16,400 g for 5 minutes the wash buffer was aspirated, and the pellets were stored at −80° C. until further use.
When the cells were ready to be lysed and data collected, samples were removed from the −80° C. freezer, allowed to thaw, and resuspended in 150 μL of lysis buffer (100 mM potassium phosphate pH=8.0, 10% v/v acetone, 20 μg/mL lysostaphin) before incubation in a 37° C. bead bath for 20 minutes and then cooled for 5 minutes on ice. The samples were then centrifuged at 16,400 g and 4° C. for 30 minutes to separate the pellet from the lysate, which was then placed into a 96-well microtiter plate and kept on ice. The lysate from each sample was pipetted into 20 μL aliquots on a round-bottom or flat-bottom 96-well plate on ice. The round bottom plate was labeled for bicinchoninic acid assay (BCA) protein content analysis, and 10 μL of BCA standards was added to extra wells on the plate. Protein quantification was performed using a Pierce BCA Protein Assay Kit as per the manufacturer's instructions. While the BCA plate was in the incubator, the flat-bottom plate was prepared by thawing 1 M catechol on ice and making 100 mM potassium phosphate (pH=8.0) assay buffer. After preparing a kinetic read at 375 nm for 10 minutes with a minimal interval between reads, the catechol was diluted 1:1,000 into the assay buffer and quickly dispensed into a sterile basin, then 200 μL of the solution was pipetted into each well using a multichannel pipette. All data were exported into Excel software (Microsoft) and analyzed for specific activity of each compound and activity relative to VU0038882 controls.
After 219 analogs had been screened, the compounds with the best percent VU0038882 activity were tested again following the same protocol, but with twelve replicates per concentration with data expressed as averages ±the standard deviation (SD). Additionally, the top-performing compounds were tested using the XylE protocol with a concentration gradient to determine their half maximal effective concentration (EC50) values.
Photosensitizer-conjugated antibodies expose bacteria to reactive oxygen species (ROS) externally, but this treatment can be paired with small molecule treatment to generate ROS internally via heme biosynthesis pathway intermediates. To discover new compounds capable of activating CgoX and/or displaying less toxicity to eukaryotic cells, a medicinal chemistry campaign was initatied based on systematic alternation of the '8882 structure. Each new analog was tested for the ability to activate HssRS using the previously described XylE colorimetric assay that employs a reporter construct in which the hrtAB promoter is fused to a xylE reporter gene. […]

Structure (SMILES): Nc1ncccc1-c1cc(-c2ccco2)[nH]n1 [′3989, 3-(5-(Furan-2-yl)-1H-pyrazol-3-yl)pyridin-2-amine]
- Specifc Activity @ 30 μM: 0.2491 ± 0.2546 nmol/min/mg

Structure (SMILES): Oc1cc(F)ccc1-c1cc(-c2ccco2)[nH]n1 [′4083, 5-Fluoro-2-(5-(furan-2-yl)-1H-pyrazol-3-yl)phenol]
- XylE activity in comparison to '8882 at 10 μM: activity similar to '8882
- Specifc Activity @ 30 μM: 28.76 ± 9.41 nmol/min/mg
- XylE activity in comparison to '8882 at 30 μM: activity similar to '8882
- EC50: 20.9 µM
- EC50 (read-out: logEC50 (converted)): 20.9 µM

Structure (SMILES): Cc1sccc1-c1cc(-c2ccc3ccccc3c2O)n[nH]1 [′9769, 2-(5-(2-Methylthiophen-3-yl)-1H-pyrazol-3-yl)naphthalen-1-ol]
- Specifc Activity @ 30 μM: 4.922 ± 1.261 nmol/min/mg

Structure (SMILES): Oc1ncccc1-c1cc(-c2ccco2)[nH]n1 [′7268, 3-(5-(Furan-2-yl)-1H-pyrazol-3-yl)pyridin-2-ol]
- Specifc Activity @ 30 μM: 0.4793 ± 1.2179 nmol/min/mg

Structure (SMILES): Cc1cnccc1-c1cc(-c2ccc3ccccc3c2O)n[nH]1 [′9767, 2-(5-(3-Methylpyridin-4-yl)-1H-pyrazol-3-yl)naphthalen-1-ol]
- Specifc Activity (nMol/min*mg), data collected at 10 uM: 1.393 ± 0.392^a nMol/min*mg

Structure (SMILES): Cn1ncc2cc(-c3cc(-c4ccc5ccccc5c4O)n[nH]3)ccc21 [′6700, 2-(5-(1-methyl-1H-indazol-5-yl)-1H-pyrazol-3-yl)naphthalen-1-ol]
- Specifc Activity @ 30 μM: 24.26 ± 3.69 nmol/min/mg
- EC50: 8.18 µM
- EC50 (read-out: logEC50 (converted)): 8.18 µM
- XylE activity (ability to activate HssRS) in comparison to '8882: roughly equivalent to '8882

Structure (SMILES): Cc1nn(C)c(C)c1-c1cc(-c2ccc3ccccc3c2O)n[nH]1 [′2069, 2-(1′,3′,5′-trimethyl-1′H,2H-[3,4′-bipyrazol]-5-yl)naphthalen-1-ol]
- XylE activity in comparison to '8882 at 10 μM: weaker activity compared to '8882
- Specifc Activity @ 30 μM: 10.46 ± 1.54 nmol/min/mg
- XylE activity in comparison to '8882 at 30 μM: equivalent
- EC50: 28.5 µM
- EC50 (read-out: logEC50 (converted)): 28.5 µM

Structure (SMILES): Oc1c(-c2cc(-c3ccsc3)[nH]n2)ccc2ccccc12 [′9132, 2-(5-(thiophen-3-yl)-1H-pyrazol-3-yl)naphthalen-1-ol]
- Specifc Activity @ 30 μM: 12.82 ± 1.12 nmol/min/mg
- EC50: 26.2 µM
- EC50 (read-out: logEC50 (converted)): 26.2 µM
- XylE activity (ability to activate HssRS) in comparison to '8882: lost some activity compared with '8882

Structure (SMILES): Cc1c(-c2ccccc2O)n[nH]c1-c1ccco1 [Compound 0394, 2-(5-(Furan-2-yl)-4-methyl-1H-pyrazol-3-yl)phenol]
- Specifc Activity @ 30 μM: 0.0287 ± 0.0198 nmol/min/mg

Structure (SMILES): Cc1ccc(-c2cc(-c3ccc4ccccc4c3O)n[nH]2)o1 ['9624, 2-(5-(5-Methylfuran-2-yl)-1H-pyrazol-3-yl)naphthalen-1-ol]
- Specifc Activity @ 30 μM: 1.152 ± 0.382 nmol/min/mg

Structure (SMILES): C#Cc1cc(-c2ccc3ccccc3c2O)n[nH]1 [′9128, 2-(5-Ethynyl-1H-pyrazol-3-yl)naphthalen-1-ol]
- Specifc Activity (nMol/min*mg), data collected at 10 uM: 0.442 ± 0.089^a nMol/min*mg

Structure (SMILES): Oc1c(-c2cc(-c3cc4ccccc4o3)[nH]n2)ccc2ccccc12 [′9134, 2-(5-(Benzofuran-2-yl)-1H-pyrazol-3-yl)naphthalen-1-ol]
- Specifc Activity @ 30 μM: 0.130 ± 0.142 nmol/min/mg

Structure (SMILES): Oc1c(-c2cc(-c3cccs3)[nH]n2)ccc2ccccc12 [′9626, 2-(5-(Thiophen-2-yl)-1H-pyrazol-3-yl)naphthalen-1-ol]
- XylE activity in comparison to '8882 at 10 μM: performed well
- Specifc Activity @ 30 μM: 28.86 ± 2.66 nmol/min/mg
- XylE activity in comparison to '8882 at 30 μM: comparable to '8882
- EC50: 19.9 µM
- EC50 (read-out: logEC50 (converted)): 19.9 µM

Structure (SMILES): Oc1c(-c2cc(-c3cc4ccccc4s3)[nH]n2)ccc2ccccc12 [′9130, 2-(5-(Benzo[b]thiophen-2-yl)-1H-pyrazol-3-yl)naphthalen-1-ol]
- Specifc Activity @ 30 μM: 1.012 ± 0.064 nmol/min/mg

Structure (SMILES): Oc1c(-c2n[nH]c(-c3ccco3)n2)ccc2ccccc12 [′0485, 2-(5-(Furan-2-yl)-1H-1,2,4-triazol-3-yl)naphthalen-1-ol]
- Specifc Activity @ 30 μM: 1.697 ± 0.335 nmol/min/mg

Structure (SMILES): c1ccc(-c2cc(-c3ccco3)[nH]n2)nc1 [′7092, 2-(5-(Furan-2-yl)-1H-pyrazol-3-yl)pyridine]
- Specifc Activity @ 30 μM: 0.2374 ± 0.1354 nmol/min/mg

Structure (SMILES): Cc1csc(-c2cc(-c3ccc4ccccc4c3O)n[nH]2)c1 [′9627, 2-(5-(4-Methylthiophen-2-yl)-1H-pyrazol-3-yl)naphthalen-1-ol]
- Specifc Activity @ 30 μM: 10.15 ± 3.65 nmol/min/mg

Structure (SMILES): Oc1c(-c2cc(C3CCCO3)[nH]n2)ccc2ccccc12 (stereo not shown) [′9437, 2-(5-(tetrahydrofuran-2-yl)-1H-pyrazol-3-yl)naphthalen-1-ol]
- Specifc Activity @ 30 μM: 0.088 ± 0.041 nmol/min/mg

Structure (SMILES): Oc1cc2ccccc2cc1-c1cc(-c2ccco2)[nH]n1 [′3918, 3-(5-(Furan-2-yl)-1H-pyrazol-3-yl)naphthalen-2-ol]
- Specifc Activity @ 30 μM: 0.2543 ± 0.127 nmol/min/mg

Structure (SMILES): Cc1ccc(-c2cc(-c3ccc4ccccc4c3O)n[nH]2)s1 [′9625, 2-(5-(5-Methylthiophen-2-yl)-1H-pyrazol-3-yl)naphthalen-1-ol]
- Specifc Activity @ 30 μM: 8.023 ± 1.065 nmol/min/mg
- EC50: 13.1 µM
- EC50 (read-out: logEC50 (converted)): 13.1 µM

Structure (SMILES): CC(C)Nc1cc(-c2ccc3ccccc3c2O)n[nH]1 [′0457, 2-(5-(isopropylamino)-1H-pyrazol-3-yl)naphthalen-1-ol]
- Specifc Activity @ 30 μM: 0.5082 ± 0.770 nmol/min/mg

Structure (SMILES): Oc1ccc(F)cc1-c1cc(-c2ccco2)[nH]n1 [′4082, 4-Fluoro-2-(5-(furan-2-yl)-1H-pyrazol-3-yl)phenol]
- Specifc Activity @ 30 μM: 5.884 ± 1.88 nmol/min/mg

Structure (SMILES): Oc1c(-c2nnc(-c3ccco3)o2)ccc2ccccc12 [′0527, 2-(5-(furan-2-yl)-1,3,4-oxadiazol-2-yl)naphthalen-1-ol]
- Specifc Activity @ 30 μM: 0.2270 ± 0.0147 nmol/min/mg

Structure (SMILES): Oc1c(-c2cc(-c3ccncc3)[nH]n2)ccc2ccccc12 [′9131]
- Specifc Activity @ 30 μM: 0.437 ± 0.26 nmol/min/mg

Structure (SMILES): Oc1c(-c2cc(-c3cnco3)[nH]n2)ccc2ccccc12 [′0071, 2-(5-(Oxazol-5-yl)-1H-pyrazol-3-yl)naphthalen-1-ol]
- Specifc Activity (nMol/min*mg), data collected at 10 uM: 1.152 ± 0.263^a nMol/min*mg

Structure (SMILES): Oc1c(-c2n[nH]c3c2CCc2ccoc2-3)ccc2ccccc12 [′1790, 2-(4,5-Dihydro-2H-furo[3,2-g]indazol-3-yl)naphthalen-1-ol]
- Specifc Activity @ 30 μM: 4.146 ± 2.397 nmol/min/mg

Structure (SMILES): Cn1nccc1-c1cc(-c2ccc3ccccc3c2O)n[nH]1 [′8233, 2-(2′-Methyl-2H,2′H-[3,3′-bipyrazol]-5-yl)naphthalen-1-ol]
- Specifc Activity @ 30 μM: 0.5053 ± 0.294 nmol/min/mg

Structure (SMILES): C/C=C/c1cc(-c2ccc3ccccc3c2O)n[nH]1 [′9768, (E)-2-(5-(Prop-1-en-1-yl)-1H-pyrazol-3-yl)naphthalen-1-ol]
- Specifc Activity @ 30 μM: 6.951 ± 0.983 nmol/min/mg

Structure (SMILES): Cn1ccc(-c2cc(-c3ccc4ccccc4c3O)n[nH]2)n1 [′6699, 2-(1-Methyl-1H,2′H-[3,3′-bipyrazol]-5′-yl)naphthalen-1-ol]
- Specifc Activity @ 30 μM: 5.138 ± 4.82 nmol/min/mg
